What was measured:
hM4 muscarinic receptor = target: T1, hM4 muscarinic receptor (Homo sapiens, UniProt P08173); test: Equilibrium inhibition binding with [3H]-NMS, CHO cell membranes; conditions: [3H]-NMS 0.2 nM, CHO membranes, mean ± SEM of 3-4 experiments; read-out: pKi hM4 (converted)
T1 construct: expressed in transfected cells; host or cells: CHO cells, stably transfected; membrane fractions
T1 sequence (P08173 1-479): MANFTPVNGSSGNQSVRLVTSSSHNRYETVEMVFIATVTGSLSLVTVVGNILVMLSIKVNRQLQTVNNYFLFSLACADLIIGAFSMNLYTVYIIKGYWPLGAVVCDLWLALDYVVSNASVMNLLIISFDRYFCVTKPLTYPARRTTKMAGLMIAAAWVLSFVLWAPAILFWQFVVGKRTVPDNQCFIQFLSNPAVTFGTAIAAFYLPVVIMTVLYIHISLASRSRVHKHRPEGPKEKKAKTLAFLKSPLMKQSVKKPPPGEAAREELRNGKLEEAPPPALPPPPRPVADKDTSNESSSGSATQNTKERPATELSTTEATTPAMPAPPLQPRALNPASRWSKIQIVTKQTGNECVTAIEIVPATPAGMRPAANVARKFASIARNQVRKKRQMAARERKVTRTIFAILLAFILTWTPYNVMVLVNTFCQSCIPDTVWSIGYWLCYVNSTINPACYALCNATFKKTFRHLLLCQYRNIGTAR
Protocol: (§1) All tested compounds were purchased from Merck KGaA (Darmstadt, Germany). The radioligand binding experiments were performed with membranes from Chinese Hamster Ovary (CHO) cells stably transfected with the five cloned human muscarinic receptor subtypes (hM1-5). Membrane fractions were prepared according to the protocol, which have been previously described; membranes were stored at −80 °C until use. Nonspecific binding was defined by the radioactivity bound in the presence of 10 µM atropine.
(§2) Aliquots of membranes (25–70 µg/mL) were added and incubated for 2 h at room temperature, filtered through UniFilter GF/B plates (PerkinElmer Life and Analytical Science, Monza, Italy) using a FilterMate cell harvester (PerkinElmer Life and Analytical Science, Monza, Italy). The filters were washed several times with ice-cold MilliQ water. Then, the plates were counted in a β-counter (TopCount NXT microplate scintillation counter, PerkinElmer Life and Analytical Science, Monza, Italy).
(§3) Data points from radioligand inhibition binding curve were fitted to models using nonlinear regression equation to determine inhibitor potency (IC50) estimates, which were then converted to Ki values as appropriate.
(§4) All the results are expressed as means ± SEM obtained from 3-4 independent experiments each one performed in duplicate.

hM5 muscarinic receptor = target: T2, hM5 muscarinic receptor (Homo sapiens, UniProt P08912); test: as above; conditions: [3H]-NMS 0.2 nM, CHO membranes, mean ± SEM of 3-4 experiments; read-out: pKi hM5 (converted)
T2 construct: expressed in transfected cells; host or cells: CHO cells, stably transfected; membrane fractions
T2 sequence (P08912 1-532): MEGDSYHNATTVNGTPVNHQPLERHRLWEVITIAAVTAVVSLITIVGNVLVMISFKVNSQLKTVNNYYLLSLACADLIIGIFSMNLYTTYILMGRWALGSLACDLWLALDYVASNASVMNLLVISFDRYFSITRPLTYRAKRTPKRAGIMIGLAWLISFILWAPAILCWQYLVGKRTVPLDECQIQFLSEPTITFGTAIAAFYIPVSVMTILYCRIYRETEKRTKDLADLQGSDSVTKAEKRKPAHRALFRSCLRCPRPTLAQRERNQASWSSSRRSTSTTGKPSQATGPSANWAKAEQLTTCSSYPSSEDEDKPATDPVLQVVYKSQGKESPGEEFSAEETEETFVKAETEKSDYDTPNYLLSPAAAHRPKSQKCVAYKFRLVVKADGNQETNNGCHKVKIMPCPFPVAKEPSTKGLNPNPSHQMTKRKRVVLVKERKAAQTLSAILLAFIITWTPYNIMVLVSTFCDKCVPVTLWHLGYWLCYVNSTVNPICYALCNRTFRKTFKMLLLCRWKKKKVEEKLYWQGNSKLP
Protocol: as §1, §2, §3, §4

[1] = target: T3, [3H]-NMS-occupied muscarinic hM5 subtype (Homo sapiens, UniProt P08912); test: One point kinetic (off-rate) assay of [3H]-NMS dissociation; type: binding; conditions: read-out: log Kocc hM5 (converted)
T3 construct: expressed in transfected cells; host or cells: CHO cells, stably transfected; membrane fractions
T3 sequence (P08912 1-532): T2 sequence (P08912 1-532)
Protocol: as §1
(§5) Off-rate assays were performed as described elsewhere to estimate the affinity of the ligands for the [^3H]-NMS-occupied receptor (log Kocc). Briefly, a high concentration of membranes (about 0.1 mg/mL) was incubated with a high concentration of [^3H]-NMS (2 nM) for 60 min at room temperature (mix membrane). Next, 100 µL aliquots were distributed into polypropylene tubes that were empty or in a final volume of 1 mL binding buffer with 1 µM atropine alone and in the presence of a range of concentrations of tested compound (1 nM–0.1 mM).
(§6) The effect on the radioligand dissociation of each tested ligand was determined at 0 min and at one time point, which was chosen to be ca 2.5 dissociation half-lives of [^3H]-NMS alone from each subtype receptors. Later (80 min for hM1, 20 min for hM2 and 70 min for hM5), the samples were filtered and counted as previously reported. Non specific binding was measured as previously reported.
Data from one-point kinetic experiments were analyzed in order to obtain estimates of the affinity of an allosteric ligand for the [^3H]-NMS occupied receptor (log Kocc) in a single step, using an equation introduced in GraphPad Prism 5.02 [33, 34].
as §4

hM1 muscarinic receptor = target: T4, hM1 muscarinic receptor (Homo sapiens, UniProt P11229); test: Equilibrium inhibition binding with [3H]-NMS, CHO cell membranes; conditions: [3H]-NMS 0.2 nM, mean ± SEM of 3-4 experiments, read-out: pKi hM1 (converted)
T4 construct: expressed in transfected cells; host or cells: CHO cells, stably transfected; membrane fractions
T4 sequence (P11229 1-460): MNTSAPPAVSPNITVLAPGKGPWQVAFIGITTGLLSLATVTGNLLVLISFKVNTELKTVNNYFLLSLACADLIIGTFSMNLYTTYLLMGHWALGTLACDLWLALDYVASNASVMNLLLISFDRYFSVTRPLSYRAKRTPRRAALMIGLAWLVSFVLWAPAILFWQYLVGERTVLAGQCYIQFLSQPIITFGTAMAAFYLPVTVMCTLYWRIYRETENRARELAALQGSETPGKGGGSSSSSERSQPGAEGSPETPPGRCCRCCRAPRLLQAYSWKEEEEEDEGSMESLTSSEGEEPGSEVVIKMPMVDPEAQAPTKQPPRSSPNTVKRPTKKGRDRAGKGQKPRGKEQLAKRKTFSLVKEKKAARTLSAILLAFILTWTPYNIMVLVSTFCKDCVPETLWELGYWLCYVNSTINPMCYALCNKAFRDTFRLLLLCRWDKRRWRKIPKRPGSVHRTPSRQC
Protocol: as §1, §2, §3, §4

hM3 muscarinic receptor = target: T5, hM3 muscarinic receptor (Homo sapiens, UniProt P20309); test: as above; conditions: [3H]-NMS 0.2 nM, mean ± SEM of 3-4 experiments, read-out: pKi hM3 (converted)
T5 construct: expressed in transfected cells; host or cells: CHO cells, stably transfected; membrane fractions
Protocol: as §1, §2, §3, §4

[2] = target: T6, [3H]-NMS-occupied muscarinic hM1 subtype (Homo sapiens, UniProt P11229); test: biochemical
T6 sequence (P11229 1-460): T4 sequence (P11229 1-460)
Protocol: as §1, §5, §6, §4

[3] = target: five human muscarinic receptors subtypes (hM1–hM5); test: Equilibrium binding, summary statements over the five subtypes
Protocol: as §1, §2, §3, §4

hM2 muscarinic receptor = target: T7, hM2 muscarinic receptor (Homo sapiens, UniProt P08172); test: Equilibrium inhibition binding with [3H]-NMS, CHO cell membranes; conditions: [3H]-NMS 0.2 nM, mean ± SEM of 3-4 experiments, read-out: pKi hM2 (converted)
T7 construct: expressed in transfected cells; host or cells: CHO cells, stably transfected; membrane fractions
T7 sequence (P08172 1-466): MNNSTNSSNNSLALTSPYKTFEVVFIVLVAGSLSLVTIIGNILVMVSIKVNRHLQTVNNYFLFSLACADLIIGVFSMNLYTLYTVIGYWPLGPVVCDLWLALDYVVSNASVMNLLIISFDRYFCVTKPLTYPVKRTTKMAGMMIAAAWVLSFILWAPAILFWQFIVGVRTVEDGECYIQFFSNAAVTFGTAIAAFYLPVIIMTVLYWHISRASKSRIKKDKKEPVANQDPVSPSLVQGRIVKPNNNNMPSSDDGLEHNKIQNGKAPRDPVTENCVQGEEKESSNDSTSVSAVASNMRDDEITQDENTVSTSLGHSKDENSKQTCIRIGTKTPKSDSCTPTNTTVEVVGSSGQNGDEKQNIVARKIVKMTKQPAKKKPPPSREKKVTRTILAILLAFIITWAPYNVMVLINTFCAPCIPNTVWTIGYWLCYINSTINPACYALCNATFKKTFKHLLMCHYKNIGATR
Protocol: as §1, §2, §3, §4

[4] = target: T8, [3H]-NMS-occupied muscarinic hM2 subtype (Homo sapiens, UniProt P08172); test: One point kinetic (off-rate) assay of [3H]-NMS dissociation; type: binding
T8 construct: expressed in transfected cells; host or cells: CHO cells, stably transfected; membrane fractions
T8 sequence (P08172 1-466): T7 sequence (P08172 1-466)
Protocol: as §1, §5, §6, §4

T5 sequence (P20309 whole entry): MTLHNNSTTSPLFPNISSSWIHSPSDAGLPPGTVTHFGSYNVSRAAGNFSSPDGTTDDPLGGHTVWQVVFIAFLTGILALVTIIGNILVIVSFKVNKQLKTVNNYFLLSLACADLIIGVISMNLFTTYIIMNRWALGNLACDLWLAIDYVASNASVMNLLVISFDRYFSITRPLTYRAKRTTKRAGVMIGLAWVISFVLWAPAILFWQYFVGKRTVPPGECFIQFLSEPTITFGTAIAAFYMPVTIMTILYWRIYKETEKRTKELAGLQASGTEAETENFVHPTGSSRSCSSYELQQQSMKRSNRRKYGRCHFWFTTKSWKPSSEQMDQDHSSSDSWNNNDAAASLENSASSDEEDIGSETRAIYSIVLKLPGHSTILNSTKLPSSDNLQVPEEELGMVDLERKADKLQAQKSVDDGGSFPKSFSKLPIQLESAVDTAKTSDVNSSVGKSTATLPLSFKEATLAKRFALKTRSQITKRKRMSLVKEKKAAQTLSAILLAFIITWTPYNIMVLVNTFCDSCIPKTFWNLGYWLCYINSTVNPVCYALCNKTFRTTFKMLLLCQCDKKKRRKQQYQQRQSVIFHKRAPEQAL

SMILES: N=C(N)c1ccc(OCCCCCOc2ccc(C(=N)N)cc2)cc1 [pentamidine]
- Ki (hM4 muscarinic receptor): 1.32 µM
- Ki (hM5 muscarinic receptor): 1.74 µM
- Kd [1]: 182 µM

SMILES: [H]/N=C(\N/C(=N/[H])NCCCCCCNC(=N)NC(=N)Nc1ccc(Cl)cc1)Nc1ccc(Cl)cc1 [chlorhexidine]
- Ki (hM1 muscarinic receptor): 0.501 µM
- Ki (hM4 muscarinic receptor): 1.62 µM
- Ki (hM5 muscarinic receptor): 2.24 µM
- Ki (hM3 muscarinic receptor): 2.14 µM
- Kd [2]: 81.3 µM
- pKi values (muscarinic subtypes overall) [3]: around 6
- Kd [1]: 186 µM

SMILES: C[N+](C)(CCCCCC[N+](C)(C)CCCN1C(=O)c2ccccc2C1=O)CCCN1C(=O)c2ccccc2C1=O [W84]
- Ki (hM1 muscarinic receptor): 0.891 µM
- Ki (hM4 muscarinic receptor): 5.01 µM
- Ki (hM5 muscarinic receptor): 9.12 µM
- Ki (hM2 muscarinic receptor): 6.17 µM
- Ki (hM3 muscarinic receptor): 5.5 µM
- Kd [2]: 1.62 µM
- selectivity ratio hM2/hM1 ([4]; from log Kocc values): 4.6
- selectivity ratio hM2/hM5 ([4]; from log Kocc values): 52.5
- Kd ([4]; read-out: Log Kocc hM2 (converted)): 0.288 µM
- Kd [1]: 18.2 µM

From article PMC7503225, “Repositioning Dequalinium as Potent Muscarinic Allosteric Ligand by Combining Virtual Screening Campaigns and Experimental Binding Assays” (International Journal of Molecular Sciences, 2020)
